This note sets out measurements from PMC8491553 (ACS Medicinal Chemistry Letters, 2021).

The target of this experiment is SARS-CoV-2 main protease (3CLpro) (Severe acute respiratory syndrome coronavirus 2, UniProt P0DTD1). Format: biochemical.
For `Cn1nc(C(=O)N2CC3(C)CN(C(=O)c4nn(C)c5c4CCc4ccccc4-5)CC(C)(C2)C3=O)c2c1-c1ccccc1CC2` [Compound 2j], the “activity as main protease inhibitor (in words)” value was “submicromolar range”. In the case of `C#CCN1CC2(C)CN(CC#C)CC(C)(C1)C2=O` [Compound 4c] it was “lower micromolar range”.

In the case of `CC12CN(Cc3ccccc3)CC(C)(CN(Cc3ccccc3)C1)C2=O` [Compound 4d], the “activity as main protease inhibitor (in words)” value is on record as “submicromolar activity”. The result for `CC12CN(CC#N)CC(C)(CN(CC#N)C1)C2=O` [Compound 4l] reads “lower micromolar range”; that for `CC12CN(CC(=O)O)CC(C)(CN(CC(=O)O)C1)C2=O` [Compound 4m], “lower micromolar range”; that for `Cc1cc(CN2CC3(C)CN(Cc4cc(C)no4)CC(C)(C2)C3=O)on1` [Compound 4o], “lower micromolar range”.

For `CC(C)(C)OC(=O)Cn1cc(CN2CC3(C)CN(Cc4cn(CC(=O)OC(C)(C)C)nn4)CC(C)(C2)C3=O)nn1` [Compound 4p], the “activity as main protease inhibitor (in words)” value is recorded as “lower micromolar range”. Consider `CC(C)(C)OC(=O)NCCn1cc(CN2CC3(C)CN(Cc4cn(CCNC(=O)OC(C)(C)C)nn4)CC(C)(C2)C3=O)nn1` [Compound 4q], for which the “activity as main protease inhibitor (in words)” value is listed as “submicromolar activity”. In the case of `CC12CN(Cc3cn(Cc4ccccc4)nn3)CC(C)(CN(Cc3cn(Cc4ccccc4)nn3)C1)C2=O` [Compound 4r] it was “lower micromolar range”; in that of `CC(C)Cc1ccc(C(C)C(=O)O)cc1` (stereo not shown) [Ibuprofen, reference compound], “no activity at all”.
